Earlier results on one substance are cited in patent US10485825B2, “Prevention of pregnancy complications by noble gas administration” (NOBLIS THERAPEUTICS, INC., priority 2016, dated 2019).

The data set deals with Tregs. The settings on record: CCL20 stimulation; blocked by neutralizing anti-CCL20 antibody.

With “CCL20: CCL20 protein used to stimulate Treg migration in a cited study”, the “increase in migration of CCL20-stimulated Tregs” value is 3.21 fold.
